Data published in patent US20220338759A1, “DEVICE FOR CALCULATING, DURING ONE STEP OR EACH SUCCESSIVE STEP OF THE GAIT OF A SUBJECT, THE PUSH-OFF P0 OF THE SUBJECT” (Centre National De La Recherche Scientifique, priority 2019, published 2022).
“And” between values parts separate entries of the source, which are not always exact repeats. Equal values may be shown once.

Tests used:
[1] = system: progressive multiple sclerosis; details: cited from earlier work
[2] = system: patients with progressive MS (pMS); assay: Prospective observational 12-month study of pMS patients with newly introduced MD1003 (pMS-b cohort): T25FW, Po and falls at M0 and M6; assay type: in vivo, human; details: for mean change in Po / mean change in TW25F: M6 vs M0
Procedure: We perform a prospective observational study to evaluate a measure of a surrogate of ankle push-off moment power (Po) as a biomarker of evolution in pMS patients with stable treatment and pMS patients with newly introduced MD1003 (high-dose biotin). Po is measured during a 10m-walk with U-turn and back, using an IMU attached to each foot. The objective is to assess whether the dynamic measure of Po at 6-month interval reflects the response to treatment (assessed using the change in the timed 25-foot walk or the Expanded Disease Status Scale) and the change in fall risk within 6 months.
Second, the inventors aim at measuring how this variation in Po impact evolution of fall risk in this group of pMS patients. […] The T25FW, Po and risk of falls was assessed every 6 months using a simple validated protocol and the evolution of Po and the risk of falls were compared for each individual according to their response to treatment.
Patients—Thirty-three patients with progressive MS (pMS) and 20 gender and age-matched healthy subjects (HS) were enrolled in this longitudinal prospective study (table 1). pMS were recruited consecutively from the outpatient clinic of Percy Hospital (Clamart, France) between December 2017 and April 2018. The inclusion criteria for participation in the pMS cohorts required participants to be at least 18 years old, be diagnosed with primary progressive or secondary progressive multiple sclerosis according to the 2010 International Panel criteria, be capable of walking 20 m with U-turn, be free of any other conditions that affect gait. The exclusion criteria was pregnancy and high-dose biotin intake before M0. From the pMS cohort, the inventors isolated a subgroup, named pMS-b cohort, built with patients who were treated with high-dose biotin (MD1003 100 mg, three times a day) for at least one year after inclusion. For participating in the pMS-b cohort, additional inclusion criteria were those of the cohort Temporary Use Authorisation (TUAc) of MD1003—they had to have been free of any relapse for at least one year and sign the consent to enter the TUA cohort. The other patients were included in a group named pMS-nb. Exclusion criteria from this pMS-nb cohort were the presence of drug intake modification for the six-months prior to inclusions or during the twelve-month follow-up. HS participants were recruited from the hospital and research unit staff between December 2017 and April 2018. The inclusion criteria for participation in the HS cohort included: no report of falls in the past 5 years before inclusion, no disease that could affect their walk. Seventeen patients were included in the pMS-b cohort and 16 in the pMS-nb cohort. All participants gave their written consent to participate in the study. The study protocol was conducted according to the Helsinki principles and approved by Ethic Comity “Protection des Personnes Nord Ouest III” under the ID RCB: 2017-A01538-45.
Measures—Gait was measured using four 3-dimensional accelerometers (Mtw XSens®, 100 Hz sampling frequency) positioned on the head, lower back (L4-L5 vertebrae) and dorsal part of both feet. Participants performed two walks of 20 m with U-turn (10 m way in and 10 m way out). One trial per visit only was used in this study, as the second trial was done with specific conditions for the sake of a reproducibility test in a previous study. A limit at 7.62 m was drawn for the assessor to timeclock the T25FW during the first way-in. Disease severity was assessed using patient-reported outcomes (the Multiple Sclerosis Walking Scale-12—MSWS—and the Fatigue Impact Scale—FIS) together with clinical evaluation (Expanded Disease Severity Scale [10]-EDSS—and Computerized Speed Cognitive Test [11]—CSCT) and the 25-foot walking test administered according to a validated standardized protocol. […]

[3] = pMS-b (n = 17), T25FW at M6 vs M0

For `O=C(O)CCCC[C@@H]1SC[C@@H]2NC(=O)N[C@@H]21` [MD1003, biotin], the “response to treatment as defined by a 20% decrease in TW25F” value ([1]; cohort of the phase 3 clinical trial [14]) is given as 8.7%, the “patients in whom the T25FW time decreased by 20%” value ([1]; recently demonstrated efficacy of MD1003) is given as 10% and the “response to treatment as defined by a 20% decrease in TW25F” value ([2]; our cohort (pMS-b)) is given as 13%. The “complete responder (≥20% decrease), number of patients” value ([2]; pMS-b (n = 17), MD1003 100 mg three times a day, T25FW at M6 vs M0) was 3/17 and 3, the “complete progressor (≥20% increase), number of patients” value [2, 3] was 5 and the “complete progressor (≥20% increase), percent of patients” value [2, 3] was “(29%)”. The “non responder (−10-10% decrease), number of patients” value [2, 3] was 5, the “non responder (−10-10% decrease), percent of patients” value [2, 3] was “(29%)” and the “partial progressor (10-20% increase), number of patients” value [2, 3] was 2. The “partial progressor (10-20% increase), percent of patients” value [2, 3] was “(12%)”, the “partial responder (10-20% decrease), number of patients” value [2, 3] was 2 and the “partial responder (10-20% decrease), percent of patients” value [2, 3] was “(12%)”. For the same compound, the “participants who decreased their number of falls among the three with Po decreased by more than 20%” value ([2]; pMS-b cohort) was “Two”, the “significant change of Po after beginning of MD1003” value ([2]; pMS-b cohort) was “nearly half the cohort” and the “responders (response to treatment by change in timed 25-foot walk or EDSS)” value ([2]; pMS-b cohort, summary of results, M0 to M6) was 2/17. For the same compound, the “participants who decreased their Po by more than 20%” value ([2]; pMS-b cohort, M0 to M6) was “Three”, the “mean change in Po” value ([2]; pMS-b complete progressors) was −0.36 and the “mean change in TW25F” value ([2]; pMS-b complete progressors) was 1.39. For the same compound, the “mean change in Po” value ([2]; pMS-b complete responders) was 0.33, the “mean change in TW25F” value ([2]; pMS-b complete responders) was −0.26 and the “number of falls in the following 6 months in the 4 patients with significant increase (higher than 20%) in Po” value ([2]; pMS-b group) was “equal or lower number of falls”. The “patients showing an increase in Po of more than 20%” value ([2]; pMS-b group, 17 patients, M0 to M6) was 4, the “patients who increased their Po” value ([2]; pMS-b group, out of the 17 patients, M0 to M6) was 8 and the “patients who did not fall during the first 6-month period and began falling during the second 6-month period” value ([2]; pMS-b group, M0-M6 vs M6-M12) was 3. The “patients who fell during the first 6-month period and stopped falling during the second 6-month period” value ([2]; pMS-b group, M0-M6 vs M6-M12) was 1, the “mean change in Po” value ([2]; pMS-b non responders) was −0.02 and the “mean change in TW25F” value ([2]; pMS-b non responders) was 0.00. The “mean change in Po” value ([2]; pMS-b partial progressors) was 0.05, the “mean change in TW25F” value ([2]; pMS-b partial progressors) was 0.17 and the “mean change in Po” value ([2]; pMS-b partial responders) was 0.14. The “mean change in TW25F” value ([2]; pMS-b partial responders) was −0.17 and the effect on locomotion ([2]; small sample of pMS patients) was “improved the locomotion in a subset pMS patients”.
